One molecule from patent US20240300886A1, “ARYLCYCLOHEXYLAMINE DERIVATIVES AND THEIR USE IN THE TREATMENT OF PSYCHIATRIC DISORDERS” (GILGAMESH PHARMACEUTICALS, INC., priority 2021, published 2024) can be followed below.

Molecules are shown by their SMILES.

The nature of data set [1]: Metabolic stability in dog liver microsomes (DLM). The class given is in vitro ADME, beagle dogs. Conditions: male, beagle, dog, pooled dog liver microsomes, pH 7.4, 1 μM compound, 0.50 mg protein/mL, NADPH. Here is the method: (§1) DLM Stability. Pooled DLM from male beagle dogs (XenoTech D1000) were used. Microsomal incubations were carried out in multi-well plates. Liver microsomal incubation medium consisted of PBS (100 mM, pH 7.4), MgCl2 (1 mM), and NADPH (1 mM), with 0.50 mg of liver microsomal protein per mL. Control incubations were performed by replacing the NADPH-cofactor system with PBS. Test compounds (1 μM, final solvent concentration 1.0%) were incubated with microsomes at 37° C. with constant shaking. Six time points over 60 minutes were analyzed, with 60 μL aliquots of the reaction mixture being drawn at each time point. The reaction aliquots were stopped by adding 180 μL of cold (4° C.) acetonitrile containing 200 ng/mL tolbutamide and 200 ng/mL labetalol as internal standards (TS), followed by shaking for 10 minutes, and then protein sedimentation by centrifugation at 4,000 rpm for 20 minutes at 4° C. Supernatant samples (80 μL) were diluted with water (240 μL) and analyzed for parent compound remaining using a fit-for-purpose liquid chromatography-tandem mass spectrometry (LC-MS/MS) method.
(§2) Data Analysis. The elimination constant (kel), half-life (t1/2) and intrinsic clearance (Clint) were determined in a plot of […] versus time, using linear regression analysis.
On the technique in general: Liver microsomes are vesicles of endoplasmic reticulum, rich in cytochrome P450 enzymes.

Data set [2] can be described thus: Metabolic stability in Gottingen minipig liver microsomes (MPLM). The note with it: pooled minipig liver microsomes, pH 7.4, 1 μM compound, 0.50 mg protein/mL, NADPH. In kind it is in vitro ADME, Gottingen minipigs. Here is the method: as §1, with “MPLM” for “DLM”, “Gottingen minipigs (Xenotech Z6000)” for “male beagle dogs (XenoTech D1000)”, “mM” for “mM,”, “(IS),” for “(TS),”
as §2

A short description of data set [3]: Comparative metabolism/PK of 2R and deuterated 7R in rats after oral administration. In kind it is in vivo, Sprague Dawley rats. Conditions: male, Sprague Dawley, rat, brain, oral, 10 mg/kg, rat brain, read-out: Mean brain concentration. The procedure: Animals. Male Sprague Dawley rats were used in these studies. Animals were randomly assigned to treatment groups and were fasted for 4 h before dosing.
Drugs. Test compounds 2R and 7R were dissolved in a vehicle consisting of normal saline. They were then administered orally (po) at a dose of 10 mg/kg (calculated based on freebase), and at a volume of 5 mL/kg body weight.
Sample Collection and Bioanalysis. Blood samples (approximately 60 μL) were collected under light isoflurane anesthesia (Surgivet®) from the retro orbital plexus at 0.08, 0.25, 0.5, 1, 2, 4, 8, and 24 h (4 animals per time point). Immediately after blood collection, plasma was harvested by centrifugation at 4,000 rpm for 10 min at 4° C. and samples were stored at −70±10° C. until bioanalysis. Following blood collection, animals were immediately sacrificed, the abdominal vena-cava was cut open, and the whole body was perfused from the heart using 10 mL of normal saline, and brain samples were collected from all animals. After isolation, brain samples were rinsed three times in ice-cold normal saline (for 5-10 seconds/rinse using ˜5-10 mL normal saline in disposable petri dish for each rinse) and dried on blotting paper. Brain samples were homogenized using ice-cold phosphate-buffered saline (pH 7.4) Total homogenate volume was three times the tissue weight. All homogenates were stored at −70±10° C. until bioanalysis. For bioanalysis, 25 μL aliquots of plasma/brain study samples or spiked plasma/brain calibration standards were added to individual pre-labeled micro-centrifuge tubes followed by 100 μL of an internal standard solution (glipizide, 500 ng/mL in acetonitrile) except for blanks, where 100 μL of acetonitrile was added. Samples were vortexed for 5 minutes and then centrifuged for 10 minutes at 4,000 rpm at 4° C. Following centrifugation, 100 μL of each clear supernatant was transferred to a 96 well plate and analyzed with a fit-for-purpose LC-MS/MS method, with authentic samples of each analyte used for calibration and identification. Concentrations of parent compound (2R or 7R) and metabolite 1R were determined in all samples.
Data Analysis. Pharmacokinetic parameters were estimated using the non-compartmental analysis tool of Phoenix® WinNonlin software (Ver 8.0).

On to `CN[C@]1(c2ccc(F)cc2)CCCCC1=O` [Compound 2S, (S)-2-(4-fluorophenyl)-2-(methylamino)cyclohexan-1-one], for which, in data set [1], the half-life at 1 μM is 18.2 min and the microsomal CLint at 1 μM came to 76 µL/min/mg. In data set [2], this molecule returned a half-life at 1 μM of 30.9 min and a microsomal CLint at 1 μM of 44.9 µL/min/mg. In addition, the concentration at 0.083 h in data set [3] (0.083 h after 10 mg/kg po of 2R or 7R) came to 43 ng/g. The concentration at 0.25 h in data set [3] (0.25 h after 10 mg/kg po of 2R or 7R) was found to be 1900 ng/g. Also, the concentration at 0.5 h in data set [3] (0.5 h after 10 mg/kg po of 2R or 7R) was 2600 ng/g. Besides, the concentration at 1 h in data set [3] (1 h after 10 mg/kg po of 2R or 7R) was 1510 ng/g. The concentration at 2 h in data set [3] (2 h after 10 mg/kg po of 2R or 7R) came to 521 ng/g. In data set [3] (4 h after 10 mg/kg po of 2R or 7R), the concentration at 4 h worked out at 155 ng/g.

By half-life is commonly meant the time needed for the level to fall by half in the phase considered. A high value points to slow loss. One may read the microsomal CLint as a measure of how fast metabolising enzymes remove a compound, apart from limits set by blood flow. A lower microsomal CLint goes with slow turnover.
